pEC50: −log10 of the molar value.
Biological target: T1, human mAChR M4 (Homo sapiens, UniProt P08173)
T1 construct: expressed in transfected cells
T1 sequence (P08173 1-479): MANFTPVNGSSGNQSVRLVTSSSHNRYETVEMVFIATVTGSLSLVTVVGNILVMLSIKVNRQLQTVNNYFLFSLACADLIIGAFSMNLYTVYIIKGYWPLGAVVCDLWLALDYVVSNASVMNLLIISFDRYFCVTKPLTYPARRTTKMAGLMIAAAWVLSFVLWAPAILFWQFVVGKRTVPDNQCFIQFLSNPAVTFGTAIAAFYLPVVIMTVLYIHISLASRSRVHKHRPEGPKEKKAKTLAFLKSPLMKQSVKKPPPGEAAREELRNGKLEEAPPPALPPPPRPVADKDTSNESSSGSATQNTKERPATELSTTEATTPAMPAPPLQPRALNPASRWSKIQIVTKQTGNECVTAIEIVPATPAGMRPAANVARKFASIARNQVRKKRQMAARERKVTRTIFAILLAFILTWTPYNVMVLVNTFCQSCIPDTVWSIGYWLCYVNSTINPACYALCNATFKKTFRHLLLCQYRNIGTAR
Experiment: mAChR M4 cell-based functional assay (calcium mobilization, CHO-K1 hM4-Gqi5 cells)
Settings: for Emax at 30 µM: CHO-K1, % ACh maximum at 30 μM, human M4; for pEC50: positive allosteric modulator activity, increase in the EC20 acetylcholine response, CHO-K1 hM4-Gqi5 cells, read-out: Human M4 EC50; for Emax: CHO-K1
Procedure, shortened: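 CHO-K1 cells stably expressing human M4 with chimeric Gqi5, loaded with Fluo-4 AM; compounds given as 11-point 1:3 curves and calcium flux read on FDSS at 1 Hz. Acetylcholine EC20 added at 144 s, EC80 at 230 s; agonist, PAM (EC20 potentiation) and antagonist (EC80 inhibition) EC50/Emax from four-parameter fits.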

Compound	Emax at 30 µM [%]	pEC50	Emax [%]
Cc1c(C#N)nnc(N2CCc3ncc(Nc4ccccc4C(F)(F)F)cc3C2)c1C [compound 43, 4,5-dimethyl-6-[3-[2-(trifluoromethyl)anilino]-7,8-dihydro-5H-1,6-naphthyridin-6-yl]pyridazine-3-carbonitrile]	71	5.94	–
Cc1c(C#N)nnc(N2CCc3ncc(Nc4ccccc4OC(F)(F)F)cc3C2)c1C [compound 44, 4,5-dimethyl-6-[3-[2-(trifluoromethoxy)anilino]-7,8-dihydro-5H-1,6-naphthyridin-6-yl]pyridazine-3-carbonitrile]	40	5.73	–
Cc1cc(C#N)cnc1N1CCc2ncccc2C1 [compound 45, 6-(7,8-dihydro-5H-1,6-naphthyridin-6-yl)-5-methyl-pyridine-3-carbonitrile]	–	5.92	97
Cc1c(C#N)nnc(N2CCc3ncc(-c4cccnc4)cc3C2)c1C [compound 47, 4,5-dimethyl-6-[3-(3-pyridyl)-7,8-dihydro-5H-1,6-naphthyridin-6-yl]pyridazine-3-carbonitrile]	81	6.87	–
Cc1c(C#N)nnc(N2CCc3ncc(-c4cncnc4)cc3C2)c1C [compound 49, 4,5-dimethyl-6-(3-pyrimidin-5-yl-7,8-dihydro-5H-1,6-naphthyridin-6-yl)pyridazine-3-carbonitrile]	60	6.06	–
Cc1c(C#N)nnc(N2CCc3ncc(-c4cccnc4C(F)(F)F)cc3C2)c1C [compound 50, 4,5-dimethyl-6-[3-[2-(trifluoromethyl)-3-pyridyl]-7,8-dihydro-5H-1,6-naphthyridin-6-yl]pyridazine-3-carbonitrile]	68	5.75	–
Cc1c(C#N)nnc(N2CCc3ncc(-c4cnc(Cl)c(F)c4)cc3C2)c1C [compound 51, 6-[3-(6-chloro-5-fluoro-3-pyridyl)-7,8-dihydro-5H-1,6-naphthyridin-6-yl]-4,5-dimethyl-pyridazine-3-carbonitrile]	61	6.11	–
Cc1c(C#N)nnc(N2CCc3ncc(-c4cc(F)cnc4Cl)cc3C2)c1C [compound 53, 6-[3-(2-chloro-5-fluoro-3-pyridyl)-7,8-dihydro-5H-1,6-naphthyridin-6-yl]-4,5-dimethyl-pyridazine-3-carbonitrile]	70	6.32	–
Cc1ccncc1-c1cnc2c(c1)CN(c1nnc(C#N)c(C)c1C)CC2 [compound 55, 4,5-dimethyl-6-[3-(4-methyl-3-pyridyl)-7,8-dihydro-5H-1,6-naphthyridin-6-yl]pyridazine-3-carbonitrile]	76	6.71	–
Cc1c(C#N)nnc(N2CCc3ncc(-c4ccc(Cl)nc4)cc3C2)c1C [compound 56, 6-[3-(6-chloro-3-pyridyl)-7,8-dihydro-5H-1,6-naphthyridin-6-yl]-4,5-dimethyl-pyridazine-3-carbonitrile]	53	6.44	–
CNC(=O)c1cnc(N2CCc3ncccc3C2)c(C)c1 [compound 57, 6-(7,8-dihydro-5H-1,6-naphthyridin-6-yl)-N,5-dimethyl-pyridine-3-carboxamide]	–	≤ 5.00	63
Cc1cc(C(=O)NC(C)C)cnc1N1CCc2ncccc2C1 [compound 58, 6-(7,8-dihydro-5H-1,6-naphthyridin-6-yl)-N-isopropyl-5-methyl-pyridine-3-carboxamide]	51	≤ 5.00	–
Cc1cc(C(=O)NCc2cccnc2)cnc1N1CCc2ncccc2C1 [compound 60, 6-(7,8-dihydro-5H-1,6-naphthyridin-6-yl)-5-methyl-N-(3-pyridylmethyl)pyridine-3-carboxamide]	61	5.33	–
Cc1cc(C(=O)NCc2cncs2)cnc1N1CCc2ncccc2C1 [compound 62, 6-(7,8-dihydro-5H-1,6-naphthyridin-6-yl)-5-methyl-N-(thiazol-5-ylmethyl)pyridine-3-carboxamide]	78	6.12	–
Cc1cc(C(=O)NCc2ccc(-n3cccn3)cc2)cnc1N1CCc2ncccc2C1 [compound 67, 6-(7,8-dihydro-5H-1,6-naphthyridin-6-yl)-5-methyl-N-[(4-pyrazol-1-ylphenyl)methyl]pyridine-3-carboxamide]	55	5.71	–
Cc1cc(C(=O)NCc2ccc3ncccc3c2)cnc1N1CCc2ncccc2C1 [compound 68, 6-(7,8-dihydro-5H-1,6-naphthyridin-6-yl)-5-methyl-N-(6-quinolylmethyl)pyridine-3-carboxamide]	43	5.50	–
Cc1cc(C(=O)NCc2cnn3ccccc23)cnc1N1CCc2ncccc2C1 [compound 69, 6-(7,8-dihydro-5H-1,6-naphthyridin-6-yl)-5-methyl-N-(pyrazolo[1,5-a]pyridin-3-ylmethyl)pyridine-3-carboxamide]	80	5.62	–
Cc1cc(C(=O)NCc2ccccc2)cnc1N1CCc2ncccc2C1 [compound 70, N-benzyl-6-(7,8-dihydro-5H-1,6-naphthyridin-6-yl)-5-methyl-pyridine-3-carboxamide]	80	5.53	–
COC(=O)c1cnc(N2CCc3ncccc3C2)c(C)c1 [compound 71, methyl 6-(7,8-dihydro-5H-1,6-naphthyridin-6-yl)-5-methyl-pyridine-3-carboxylate]	–	5.47	102
Cc1cnc(F)cc1-c1cnc2c(c1)CN(c1nnc(C#N)c(C)c1C)CC2 [compound 72, 6-[3-(2-fluoro-5-methyl-4-pyridyl)-7,8-dihydro-5H-1,6-naphthyridin-6-yl]-4,5-dimethyl-pyridazine-3-carbonitrile]	78	6.63	–
Cc1c(C#N)nnc(N2CCc3ncc(-c4ccnc(Cl)c4F)cc3C2)c1C [compound 73, 6-[3-(2-chloro-3-fluoro-4-pyridyl)-7,8-dihydro-5H-1,6-naphthyridin-6-yl]-4,5-dimethyl-pyridazine-3-carbonitrile]	50	6.03	–
Cc1c(C#N)nnc(N2CCc3ncc(-c4ccncc4)cc3C2)c1C [compound 74, 4,5-dimethyl-6-[3-(4-pyridyl)-7,8-dihydro-5H-1,6-naphthyridin-6-yl]pyridazine-3-carbonitrile]	87	6.43	–

Now from value to molecule, other results behind:

Emax at 30 µM [%]	pEC50	Compound	Emax [%]
34	6.01	Cc1c(C#N)nnc(N2CCc3ncc(Nc4ccc(Cl)cc4F)cc3C2)c1C [compound 46, 6-[3-(4-chloro-2-fluoro-anilino)-7,8-dihydro-5H-1,6-naphthyridin-6-yl]-4,5-dimethyl-pyridazine-3-carbonitrile]	–
82	5.74	Cc1c(C#N)nnc(N2CCc3ncc(-c4ccnnc4)cc3C2)c1C [compound 48, 4,5-dimethyl-6-(3-pyridazin-4-yl-7,8-dihydro-5H-1,6-naphthyridin-6-yl)pyridazine-3-carbonitrile]	–
64	6.52	COc1cnc(Cl)c(-c2cnc3c(c2)CN(c2nnc(C#N)c(C)c2C)CC3)c1 [compound 52, 6-[3-(2-chloro-5-methoxy-3-pyridyl)-7,8-dihydro-5H-1,6-naphthyridin-6-yl]-4,5-dimethyl-pyridazine-3-carbonitrile]	–
70	6.41	Cc1c(C#N)nnc(N2CCc3ncc(-c4cccnc4F)cc3C2)c1C [compound 54, 6-[3-(2-fluoro-3-pyridyl)-7,8-dihydro-5H-1,6-naphthyridin-6-yl]-4,5-dimethyl-pyridazine-3-carbonitrile]	–
68	5.16	Cc1cc(C(=O)NCc2ccccn2)cnc1N1CCc2ncccc2C1 [compound 59, 6-(7,8-dihydro-5H-1,6-naphthyridin-6-yl)-5-methyl-N-(2-pyridylmethyl)pyridine-3-carboxamide]	–
67	5.79	Cc1cc(C(=O)NCc2ccncc2)cnc1N1CCc2ncccc2C1 [compound 61, 6-(7,8-dihydro-5H-1,6-naphthyridin-6-yl)-5-methyl-N-(4-pyridylmethyl)pyridine-3-carboxamide]	–
68	5.57	Cc1cc(C(=O)NCc2ccnn2C)cnc1N1CCc2ncccc2C1 [compound 63, 6-(7,8-dihydro-5H-1,6-naphthyridin-6-yl)-5-methyl-N-[(2-methylpyrazol-3-yl)methyl]pyridine-3-carboxamide]	–
59	≤ 5.00	Cc1cc(C(=O)NC2CC2)cnc1N1CCc2ncccc2C1 [compound 64, N-cyclopropyl-6-(7,8-dihydro-5H-1,6-naphthyridin-6-yl)-5-methyl-pyridine-3-carboxamide]	–
52	≤ 5.00	Cc1cc(C(=O)NC2CCCC2)cnc1N1CCc2ncccc2C1 [compound 65, N-cyclopentyl-6-(7,8-dihydro-5H-1,6-naphthyridin-6-yl)-5-methyl-pyridine-3-carboxamide]	–
47	≤ 5.00	Cc1cc(C(=O)NC2CCCCC2)cnc1N1CCc2ncccc2C1 [compound 66, N-cyclohexyl-6-(7,8-dihydro-5H-1,6-naphthyridin-6-yl)-5-methyl-pyridine-3-carboxamide]	–

Reference: patent US20250230155A1 (Vanderbilt University, priority 2021, published 2025)
